≈ marks a conversion by molar mass, not a printed value.
What was measured:
Bacillus subtilis [1] = assay: Antibacterial activity against Bacillus subtilis at 50 ug/mL; assay type: functional; conditions: read-out: IZ
Salmonella typhi [2] = assay: Antibacterial activity against Salmonella typhi
Penicillium citrinum [3] = assay: Antifungal activity against Penicillium citrinum; assay type: functional
Bacillus subtilis [4] = assay: Antibacterial activity against Bacillus subtilis; assay type: functional
Escherichia coli [5] = assay: Antibacterial activity against Escherichia coli at 100 ug/mL; assay type: functional; conditions: read-out: IZ
Escherichia coli [6] = assay: Antibacterial activity against Escherichia coli; assay type: functional
Escherichia coli [7] = assay: Antibacterial activity against Escherichia coli at 50 ug/mL; assay type: functional; conditions: read-out: IZ
Aspergillus flavus [8] = assay: Antifungal activity against Aspergillus flavus; assay type: functional
Salmonella typhi [9] = assay: Antibacterial activity against Salmonella typhi at 50 ug/mL; conditions: read-out: IZ
Penicillium citrinum [10] = assay: Antifungal activity against Penicillium citrinum at 100 ug/mL; assay type: functional; conditions: read-out: IZ
Bacillus subtilis [11] = assay: Antibacterial activity against Bacillus subtilis at 100 ug/mL; assay type: functional; conditions: read-out: IZ
Fusarium oxysporum [12] = assay: Antifungal activity against Fusarium oxysporum; assay type: functional
Salmonella typhi [13] = assay: Antibacterial activity against Salmonella typhi at 100 ug/mL; conditions: read-out: IZ
Fusarium oxysporum [14] = assay: Antifungal activity against Fusarium oxysporum at 50 ug/mL; assay type: functional; conditions: read-out: IZ
Aspergillus flavus [15] = assay: Antifungal activity against Aspergillus flavus at 100 ug/mL; assay type: functional; conditions: read-out: IZ
Penicillium citrinum [16] = assay: Antifungal activity against Penicillium citrinum at 50 ug/mL; assay type: functional; conditions: read-out: IZ
Aspergillus flavus [17] = assay: Antifungal activity against Aspergillus flavus at 50 ug/mL; assay type: functional; conditions: read-out: IZ
Fusarium oxysporum [18] = assay: Antifungal activity against Fusarium oxysporum at 100 ug/mL; assay type: functional; conditions: read-out: IZ

Row | MIC (Salmonella typhi [2]) | MIC (Penicillium citrinum [3]) | MIC (Bacillus subtilis [4]) | MIC (Escherichia coli [6]) | MIC (Aspergillus flavus [8]) | MIC (Fusarium oxysporum [12]) | Structure (SMILES) | zone of inhibition at 50 µg/mL (Bacillus subtilis [1]) | zone of inhibition at 100 µg/mL (Escherichia coli [5]) | zone of inhibition at 50 µg/mL (Escherichia coli [7]) | zone of inhibition at 50 µg/mL (Salmonella typhi [9]) | zone of inhibition at 100 µg/mL (Penicillium citrinum [10]) | zone of inhibition at 100 µg/mL (Bacillus subtilis [11]) | zone of inhibition at 100 µg/mL (Salmonella typhi [13]) | zone of inhibition at 50 µg/mL (Fusarium oxysporum [14]) | zone of inhibition at 100 µg/mL (Aspergillus flavus [15]) | zone of inhibition at 50 µg/mL (Penicillium citrinum [16]) | zone of inhibition at 50 µg/mL (Aspergillus flavus [17]) | zone of inhibition at 100 µg/mL (Fusarium oxysporum [18])
1 | 32 µg/mL (≈ 87.3 µM) | 36 µg/mL (≈ 98.3 µM) | 41 µg/mL (≈ 112 µM) | 30 µg/mL (≈ 81.9 µM) | 27 µg/mL (≈ 73.7 µM) | 23 µg/mL (≈ 62.8 µM) | CN(C)c1ccc(/C=N/NC(=O)Cn2ncc3cc([N+](=O)[O-])ccc32)cc1 | 7.5 mm | 12.5 mm | 10.6 mm | 8.6 mm | 11.5 mm | 11 mm | 12 mm | 11.4 mm | 12.4 mm | 8.2 mm | 9.5 mm | 13.8 mm
2 | 18 µg/mL (≈ 45.3 µM) | 25 µg/mL (≈ 62.9 µM) | 23 µg/mL (≈ 57.9 µM) | 18 µg/mL (≈ 45.3 µM) | 19 µg/mL (≈ 47.8 µM) | 15 µg/mL (≈ 37.7 µM) | O=C(Cn1ncc2cc([N+](=O)[O-])ccc21)NN1C(=O)CSC1c1ccccc1 (stereo not drawn) | 13.5 mm | 19.1 mm | 17.2 mm | 14.6 mm | 18.4 mm | 17.4 mm | 18.4 mm | 17.1 mm | 19 mm | 14.8 mm | 16 mm | 20 mm
3 | 17 µg/mL (≈ 41.1 µM) | 22 µg/mL (≈ 53.2 µM) | 21 µg/mL (≈ 50.8 µM) | 16 µg/mL (≈ 38.7 µM) | 18 µg/mL (≈ 43.5 µM) | 15 µg/mL (≈ 36.3 µM) | O=C(Cn1ncc2cc([N+](=O)[O-])ccc21)NN1C(=O)CSC1c1ccccc1O (stereo not drawn) | 14.7 mm | 20.5 mm | 18.4 mm | 16 mm | 19.7 mm | 18.9 mm | 19.9 mm | 18.5 mm | 20.4 mm | 16 mm | 17.3 mm | 21.4 mm
4 | 15 µg/mL (≈ 34.7 µM) | 17 µg/mL (≈ 39.4 µM) | 17 µg/mL (≈ 39.4 µM) | 13 µg/mL (≈ 30.1 µM) | 14 µg/mL (≈ 32.4 µM) | 11 µg/mL (≈ 25.5 µM) | O=C(Cn1ncc2cc([N+](=O)[O-])ccc21)NN1C(=O)CSC1c1ccccc1Cl (stereo not drawn) | 18 mm | 24.5 mm | 21.4 mm | 19.2 mm | 23.5 mm | 22.6 mm | 23 mm | 22 mm | 24 mm | 19.4 mm | 21.3 mm | 25 mm
5 | 15 µg/mL (≈ 34.7 µM) | 17 µg/mL (≈ 39.4 µM) | 16 µg/mL (≈ 37 µM) | 13 µg/mL (≈ 30.1 µM) | 13 µg/mL (≈ 30.1 µM) | 11 µg/mL (≈ 25.5 µM) | O=C(Cn1ncc2cc([N+](=O)[O-])ccc21)NN1C(=O)CSC1c1ccc(Cl)cc1 (stereo not drawn) | 18.8 mm | 25.6 mm | 22.3 mm | 20 mm | 24.4 mm | 23.7 mm | 23.9 mm | 22.9 mm | 25 mm | 20.2 mm | 22.3 mm | 25.8 mm
6 | 17 µg/mL (≈ 35.7 µM) | 20 µg/mL (≈ 42 µM) | 20 µg/mL (≈ 42 µM) | 17 µg/mL (≈ 35.7 µM) | 17 µg/mL (≈ 35.7 µM) | 13 µg/mL (≈ 27.3 µM) | O=C(Cn1ncc2cc([N+](=O)[O-])ccc21)NN1C(=O)CSC1c1ccccc1Br (stereo not drawn) | 16 mm | 21.8 mm | 19.2 mm | 17.2 mm | 21 mm | 20.5 mm | 21 mm | 19.8 mm | 21.7 mm | 17.2 mm | 18.8 mm | 22.6 mm
7 | 17 µg/mL (≈ 35.7 µM) | 20 µg/mL (≈ 42 µM) | 18 µg/mL (≈ 37.8 µM) | 15 µg/mL (≈ 31.5 µM) | 17 µg/mL (≈ 35.7 µM) | 13 µg/mL (≈ 27.3 µM) | O=C(Cn1ncc2cc([N+](=O)[O-])ccc21)NN1C(=O)CSC1c1cccc(Br)c1 (stereo not drawn) | 16.9 mm | 23 mm | 20.2 mm | 18 mm | 22 mm | 21.4 mm | 21.9 mm | 20.8 mm | 22.8 mm | 18 mm | 20 mm | 23.7 mm
8 | 13 µg/mL (≈ 29.4 µM) | 15 µg/mL (≈ 33.9 µM) | 15 µg/mL (≈ 33.9 µM) | 11 µg/mL (≈ 24.9 µM) | 11 µg/mL (≈ 24.9 µM) | 9 µg/mL (≈ 20.3 µM) | O=C(Cn1ncc2cc([N+](=O)[O-])ccc21)NN1C(=O)CSC1c1ccccc1[N+](=O)[O-] (stereo not drawn) | 20 mm | 26.9 mm | 23.5 mm | 21.2 mm | 25.6 mm | 25.5 mm | 25 mm | 24.2 mm | 26.1 mm | 21.4 mm | 23.6 mm | 27 mm
9 | 12 µg/mL (≈ 27.1 µM) | 14 µg/mL (≈ 31.6 µM) | 15 µg/mL (≈ 33.9 µM) | 10 µg/mL (≈ 22.6 µM) | 11 µg/mL (≈ 24.9 µM) | 8 µg/mL (≈ 18.1 µM) | O=C(Cn1ncc2cc([N+](=O)[O-])ccc21)NN1C(=O)CSC1c1cccc([N+](=O)[O-])c1 (stereo not drawn) | 21 mm | 28 mm | 24.6 mm | 22 mm | 26.5 mm | 26.1 mm | 25.8 mm | 25.1 mm | 27 mm | 22.3 mm | 24.7 mm | 28.4 mm
10 | 22 µg/mL (≈ 51.5 µM) | 28 µg/mL (≈ 65.5 µM) | 30 µg/mL (≈ 70.2 µM) | 20 µg/mL (≈ 46.8 µM) | 20 µg/mL (≈ 46.8 µM) | 17 µg/mL (≈ 39.8 µM) | COc1ccccc1C1SCC(=O)N1NC(=O)Cn1ncc2cc([N+](=O)[O-])ccc21 (stereo not drawn) | 11.5 mm | 17.2 mm | 14.8 mm | 13 mm | 16 mm | 15 mm | 16.1 mm | 15 mm | 16.8 mm | 12.5 mm | 13.9 mm | 18 mm
11 | 20 µg/mL (≈ 46.8 µM) | 28 µg/mL (≈ 65.5 µM) | 25 µg/mL (≈ 58.5 µM) | 20 µg/mL (≈ 46.8 µM) | 19 µg/mL (≈ 44.5 µM) | 15 µg/mL (≈ 35.1 µM) | COc1ccc(C2SCC(=O)N2NC(=O)Cn2ncc3cc([N+](=O)[O-])ccc32)cc1 (stereo not drawn) | 12.4 mm | 18 mm | 16 mm | 13.8 mm | 17 mm | 16 mm | 17 mm | 16 mm | 17.7 mm | 13.6 mm | 14.8 mm | 18.9 mm

Reference: ChEMBL document CHEMBL1240428, “Conventional and microwave assisted synthesis of some new N-[(4-oxo-2-substituted aryl -1, 3-thiazolidine)-acetamidyl]-5-nitroindazoles and its antimicrobial activity” (2010)
